tested on: HCT 116 cells; assay: CellTiter-Glo assay in HCT 116 cells (antiproliferative activity); assay type: cell-based; conditions: 120 h, HCT 116 cells (human colon carcinoma), 5 days incubation
Method: The CellTiter-Glo™ Luminescent Cell Viability Assay (Promega) is a homogeneous method of determining the number of viable cells in culture based on quantitation of the ATP present, which signals the presence of metabolically active cells.
HCT 116 cells (human colon carcinoma, ATCC-No. CCl-247) were cultivated in RPMI 1640 medium with GlutaMAX™ I (Invitrogen, Cat-No. 61870-010), 2.5% Fetal Calf Serum (FCS, Sigma Cat-No. F4135 (FBS)); 100 Units/ml penicillin/100 μg/ml streptomycin (=Pen/Strep from Invitrogen Cat. No. 15140). For the assay the cells were seeded in 384 well plates, 1000 cells per well, in the same medium. The next day the test compounds were added in various concentrations ranging from 30 μM to 0.0015 μM (10 concentrations, 1:3 diluted). After 5 days the CellTiter-Glo™ assay was done according to the instructions of the manufacturer (CellTiter-Glo™ Luminescent Cell Viability Assay, from Promega). In brief: the cell-plate was equilibrated to room temperature for approximately 30 minutes and than the CellTiter-Glo™ reagent was added. The contents were carefully mixed for 15 minutes to induce cell lysis. After 45 minutes the luminescent signal was measured in Victor 2, (scanning multiwell spectrophotometer, Wallac).
1st. day: • Medium: RPMI 1640 with GlutaMAX™ I (Invitrogen, Cat-Nr. 61870), 5% FCS (Sigma Cat.-No. F4135), Pen/Strep (Invitrogen, Cat No. 15140). • HCT116 (ATCC-No. CCl-247): 1000 cells in 60 μl per well of 384 well plate (Greiner 781098, μClear-plate white) • After seeding incubate plates 24 h at 37° C., 5% CO2 2nd. Day: Induction (Treatment with Compounds, 10 Concentrations):
In order to achieve a final concentration of 30 μM as highest concentration 3.5 μl of 10 mM compound stock solution were added directly to 163 μl media. Then step e) of the dilution procedure described below, was followed.
In order to achieve the second highest to the lowest concentrations, a serial dilution with dilution steps of 1:3 was followed according to the procedure (a-e) as described here below: • a) for the second highest concentration add 10 μl of 10 mM stock solution of compound to 20 μl dimethylsulfoxide (DMSO) • b) dilute 8×1:3 (always 10 μl to 20 μl DMSO) in this DMSO dilution row (results in 9 wells with concentrations from 3333.3 μM to 0.51 μM) • c) dilute each concentration 1:47.6 (3.5 μl compound dilution to 163 μl media) • e) add 10 μl of every concentration to 60 μl media in the cell plate resulting in final concentration of DMSO: 0.3% in every well and resulting in 10 final concentration of compounds ranging from 30 μM to 0.0015 μM. • Each compound is tested in triplicate. • Incubate 120 h (5 days) at 37° C., 5% CO2
• Add 30 μl CellTiter-Glo™ Reagent (prepared from CellTiter-Glo™ Buffer and CellTiter-Glo™ Substrate (lyophilized) purchased from Promega) per well, • shake 15 minutes at room temperature • incubate further 45 minutes at room temperature without shaking
• Victor 2 scanning multiwell spectrophotometer (Wallac), Luminescence mode (0.5 sec/read, 477 nm) • Determine IC50 using a non-linear curve fit (XLfit software (ID Business Solution Ltd., Guilford, Surrey, UK))

IC50	Structure (SMILES)
100 to 5000 nM	CCN(CC)CCN1C(=O)C(C)(C)c2cc3nc(-c4cc(C)[nH]n4)[nH]c3cc21 [Example 13, 5-(2-Diethylamino-ethyl)-7,7-dimethyl-2-(5-methyl-1H-pyrazol-3-yl)-5,7-dihydro-3H-imidazo[4,5-f]indol-6-one]
5000 to 15000 nM	Cc1cc(-c2nc3cc4c(cc3[nH]2)C(C)(C)C(=O)N4CCN)n[nH]1 [Example 14, 5-(2-Amino-ethyl)-7,7-dimethyl-2-(5-methyl-1H-pyrazol-3-yl)-5,7-dihydro-1H-imidazo[4,5-f]indol-6-one]
100 to 5000 nM	Cc1cc(-c2nc3cc4c(cc3[nH]2)N(CC(=O)NCc2ccc(F)cc2)C(=O)C4(C)C)n[nH]1 [Example 12, 2-[7,7-Dimethyl-2-(5-methyl-1H-pyrazol-3-yl)-6-oxo-6,7-dihydro-3H-imidazo[4,5-f]indol-5-yl]-N-(4-fluoro-benzyl)-acetamide]
100 to 5000 nM	COc1cc(CNC(=O)CN2C(=O)C(C)(C)c3cc4nc(-c5cc(C)[nH]n5)[nH]c4cc32)cc(OC)c1 [Example 11, N-(3,5-Dimethoxy-benzyl)-2-[7,7-dimethyl-2-(5-methyl-1H-pyrazol-3-yl)-6-oxo-6,7-dihydro-3H-imidazo[4,5-f]indol-5-yl]-acetamide]

Continued, molecule first:

Structure (SMILES)	IC50
Cc1cc(-c2nc3cc4c(cc3[nH]2)C(C)(C)C(=O)N4CC#N)n[nH]1 [Example 2, [7,7-Dimethyl-2-(5-methyl-1H-pyrazol-3-yl)-6-oxo-6,7-dihydro-1H-imidazo[4,5-f]indol-5-yl]-acetonitrile]	100 to 5000 nM
COCCN1C(=O)C(C)(C)c2cc3nc(-c4cc(C)[nH]n4)[nH]c3cc21 [Example 1, 5-(2-Methoxy-ethyl)-7,7-dimethyl-2-(5-methyl-1H-pyrazol-3-yl)-5,7-dihydro-3H-imidazo[4,5-f]indol-6-one]	100 to 5000 nM
Cc1cc(-c2nc3cc4c(cc3[nH]2)N(CC(=O)N2CCOCC2)C(=O)C4(C)C)n[nH]1 [Example 9, 7,7-Dimethyl-2-(5-methyl-1H-pyrazol-3-yl)-5-(2-morpholin-4-yl-2-oxo-ethyl)-5,7-dihydro-3H-imidazo[4,5-f]indol-6-one]	5830 nM
Cc1cc(-c2nc3cc4c(cc3[nH]2)N(CC(=O)Nc2ccc(F)cc2)C(=O)C4(C)C)n[nH]1 [Example 10, 2-[7,7-Dimethyl-2-(5-methyl-1H-pyrazol-3-yl)-6-oxo-6,7-dihydro-3H-imidazo[4,5-f]indol-5-yl]-N-(4-fluoro-phenyl)-acetamide]	100 to 5000 nM
C=CCN1C(=O)C(C)(C)c2cc3nc(-c4cc(C)[nH]n4)[nH]c3cc21 [Example 3, 5-Allyl-7,7-dimethyl-2-(5-methyl-1H-pyrazol-3-yl)-5,7-dihydro-3H-imidazo[4,5-f]indol-6-one]	100 to 5000 nM
Cc1cc(-c2nc3cc4c(cc3[nH]2)C(C)(C)C(=O)N4CCCN2CCOCC2)[nH]n1 [Example 5, 7,7-Dimethyl-2-(5-methyl-2H-pyrazol-3-yl)-5-(3-morpholin-4-yl-propyl)-5,7-dihydro-1H-imidazo[4,5-f]indol-6-one]	100 to 5000 nM
CC1(C)C(=O)N(CCCN2CCOCC2)c2cc3nc(-c4cc(C(F)(F)F)n[nH]4)[nH]c3cc21 [Example 4, 7,7-Dimethyl-5-(3-morpholin-4-yl-propyl)-2-(5-trifluoromethyl-2H-pyrazol-3-yl)-5,7-dihydro-1H-imidazo[4,5-f]indol-6-one]	100 to 5000 nM
CCCc1cc(-c2nc3cc4c(cc3[nH]2)C(C)(C)C(=O)N4CCCN2CCOCC2)[nH]n1 [Example 6, 7,7-Dimethyl-5-(3-morpholin-4-yl-propyl)-2-(5-propyl-2H-pyrazol-3-yl)-5,7-dihydro-1H-imidazo[4,5-f]indol-6-one]	1240 nM

target: T1, Aurora A kinase (Homo sapiens, UniProt O14965); assay: IC50 determination for inhibitors of Aurora A kinase (ELISA, GST-Histone H3 substrate); assay type: biochemical; conditions: mutant Aur A kinase, 30 μM ATP, 40 minutes; read-out: IC50 Aurora A kinase inhibition
T1 sequence (O14965 1-403): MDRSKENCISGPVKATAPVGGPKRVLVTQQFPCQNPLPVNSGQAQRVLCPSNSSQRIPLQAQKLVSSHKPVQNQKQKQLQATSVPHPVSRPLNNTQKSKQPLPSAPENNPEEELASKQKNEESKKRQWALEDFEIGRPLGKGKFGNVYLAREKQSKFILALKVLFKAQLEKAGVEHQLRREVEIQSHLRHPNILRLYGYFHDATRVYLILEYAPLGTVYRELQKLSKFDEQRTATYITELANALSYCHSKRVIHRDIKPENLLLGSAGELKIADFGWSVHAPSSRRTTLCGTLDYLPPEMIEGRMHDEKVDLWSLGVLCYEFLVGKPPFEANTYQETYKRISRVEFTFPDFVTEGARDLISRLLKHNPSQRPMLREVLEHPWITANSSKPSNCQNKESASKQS
Method: IC50 Determination for Inhibitors of Aurora A Kinase Assay Principle
Aurora A is a serine threonine kinase involved in spindle assembly and chromosome segregation.
The assay is a typically ELISA-type assay where substrate (GST-Histone H3) is coupled to the assay-plate and is phosphorylated by the kinase. Phosphorylation is detected by a mouse anti-Phosphopeptid mAb and an HRP-labeled anti-mouse pAb. The assay is validated for IC50-determination.
Kinase activities were measured by Enzyme-Linked Immunosorbent Assay (ELISA): Maxisorp 384-well plates (Nunc) were coated with recombinant fusion protein comprising residues 1-15 of HistoneH3 fused to the N-terminus of Glutathione-S-Transferase. Plates were then blocked with a solution of 1 mg/mL I-block (Tropix cat# T2015—highly purified form of casein) in phosphate-buffered saline. […] After washing, substrate phosphorylation was detected by addition of anti-phospho-Histone H3 (Ser 10) 6G3 mAb (Cell Signaling cat #9706) and sheep anti-mouse pAb-HRP (Amersham cat# NA931V), followed by colorimetric development with TMB (3,3′,5,5′-tetramethylbenzidine from Kirkegaard & Perry Laboratories). After readout of the absorbance, IC50 values were calculated using a non-linear curve fit (XLfit software (ID Business Solution Ltd., Guilford, Surrey, UK))

IC50	Structure (SMILES)
80 nM	COCCN1C(=O)C(C)(C)c2cc3nc(-c4cc(C)[nH]n4)[nH]c3cc21 [Example 1, 5-(2-Methoxy-ethyl)-7,7-dimethyl-2-(5-methyl-1H-pyrazol-3-yl)-5,7-dihydro-3H-imidazo[4,5-f]indol-6-one]
40 nM	Cc1cc(-c2nc3cc4c(cc3[nH]2)N(CC(=O)Nc2ccc(F)cc2)C(=O)C4(C)C)n[nH]1 [Example 10, 2-[7,7-Dimethyl-2-(5-methyl-1H-pyrazol-3-yl)-6-oxo-6,7-dihydro-3H-imidazo[4,5-f]indol-5-yl]-N-(4-fluoro-phenyl)-acetamide]

— patent US20090143375A1, “Tricyclic Lactam Derivatives, Their Manufacture and Use as Pharmaceutical Agents” (F. HOFFMANN-LA ROCHE AG, priority 2005, published 2009)
